Measured values published in PMC3627359 (Journal of medicinal chemistry, 2013).
Where two headings read alike, the source gives them in different places.

Legend:
[1] = system: PC12 cells expressing G93A SOD1; test: Mutant SOD1-induced cytotoxicity protection assay; format: cell-based
cortical neurons = test: Primary cortical neuron protection assay; format: cell-based
[2] = In vitro microsomal stability; format: in vitro ADME; conditions: Mouse microsomes, data from Apredica
[3] = In vitro microsomal stability; format: in vitro ADME; conditions: Human microsomes, data from Apredica
[4] = cited from earlier work
[5] = In vitro Caco-2 permeability; format: in vitro ADME; conditions: human

Row | NADPH-absent CLint (microsomal intrinsic clearance) [2] [mL/min/kg] | NADPH-dependent CLint (microsomal intrinsic clearance) [2] [mL/min/kg] | NADPH-absent CLint (microsomal intrinsic clearance) [3] [mL/min/kg] | NADPH-dependent CLint (microsomal intrinsic clearance) [3] [mL/min/kg] | Structure (SMILES) | also measured
1 |  |  |  |  | CN(Cc1cc(=O)n(C)[nH]1)c1cc(Cl)cc(Cl)c1 [Compound 30, 5-(((3,5-Dichlorophenyl)(methyl)amino)methyl)-2-methyl-1H-pyrazol-3(2H)-one] | Activity in the PC12 assay [1]: comparable in activity to parent compound 3
2 |  |  |  |  | CN(CCCc1cc(=O)[nH][nH]1)c1cc(Cl)cc(Cl)c1 [Compound 24, 5-(3-((3,5-Dichlorophenyl)(methyl)amino)propyl)-1H-pyrazol-3(2H)-one] | Activity with cortical neurons (cortical neurons): not active
3 | 23 | 78 | 0 | 24 | O=c1cc(CNc2cc(Cl)cc(Cl)c2)[nH][nH]1 [Compound 2, 5-((3,5-Dichlorophenylamino)methyl)-1H-pyrazol-3(2H)-one] | 
4 |  |  |  |  | O=c1[nH][nH]c2c1CN(c1cc(Cl)cc(Cl)c1)CC2 [Compound 27, 5-(3,5-Dichlorophenyl)-4,5,6,7-tetrahydro-1H-pyrazolo[4,3-c]pyridin-3(2H)-one] | Activity with cortical neurons (cortical neurons): not active
5 |  |  |  |  | CN(Cc1cc(=O)n(Cc2ccccc2)[nH]1)c1cc(Cl)cc(Cl)c1 [Compound 29, 2-Benzyl-5-(((3,5-dichlorophenyl)(methyl)amino)methyl)-1H-pyrazol-3(2H)-one] | Activity in the PC12 assay [1]: comparable in activity to parent compound 3
6 | 21 | 64 | 13 | 25 | O=c1cc(COc2cc(Cl)cc(Cl)c2)[nH][nH]1 [Compound 1] | AUC/dose ([4]; i.v. administration): 184 ng*h/mL/dose; PK half-life ([4]; in vivo PK): 3.6 h; AUC/dose ([4]; p.o. administration): 50 ng*h/mL/dose; Oral bioavailability ([4]; p.o. vs i.v.): 27%; efflux ratio [5]: 0.4
7 | 0 | 93 | 0 | 0 | CN(Cc1cc(=O)[nH][nH]1)c1cc(Cl)cc(Cl)c1 [Compound 3, 5-(((3,5-Dichlorophenyl)(methyl)amino)methyl)-1H-pyrazol-3(2H)-one] | Neuronal activity recovered (cortical neurons; 10 μM concentration): 100%
